This is an account of results in patent publication US20210352950A1 (priority 2019, published 2021).

The structures appear in SMILES notation.

One test has as its system phospho-AKT (serine 473). The test is described as follows: AKT phosphorylation (western blot). It is filed as cell-based, human. Conditions: HCT116, STS 24 hours + vitamin C 350 μM 3 hours. As to the method:
(§1) Cells were washed twice in ice-cold PBS and lysates were prepared in RIPA lysis buffer (50 mM Tris HCl pH 7.4, 150 mM NaCl, 1% NP-40, 0.25% deoxycholic acid, 1 mM EDTA) supplemented with protease and phosphatase inhibitors (protease inhibitor cocktail set III EDTA-free, Calbiochem, Cat. #: S39134; PhosStop, Roche), Samples were sonicated (bioruptor plus, diogenode) and centrifuged at 16.1 g for 30 minutes at 4° C. Tumor tissues were collected and snap frozen in liquid nitrogen immediately after mice were sacrificed, and stored in -80° C. until use. […] Protein concentrations were determined by BCA assay (Thermo Fisher Scientific, Cat. #: 23225). Proteins were diluted in 1× Laemmli sample buffer, boiled at 95° C. for 5 minutes and 30 μg of total proteins were separated by using SDS-PAGE and analyzed by western blotting by standard procedures. […] Membranes were incubated overnight at 4° C. with gentle shaking with the following primary antibodies: […] ADI-SPA894), FTH (1:1000, Cell Signaling, Cat. #: 3998), AMPK (1:1000, Cell Signaling, Cat. #: 2532), phospho-[…] AMPK (1:1000, Cell Signaling, Cat. #: 2535), eIF2a (1:1000, Cell signaling, Cat. #: 5324), phospho […] eIF2a (1:1000, Cell signaling, Cat. #: 3597), AKT (1:1000, Cell Signaling, Cat. #: 9272), phospho-[…] […] Bands intensity was quantified with NIH Image J software (version 1.48v).
(A western blot detects proteins with antibodies after separation by electrophoresis.)

The test system of test [1] is Phosphorylated histone H2AX. Description: Histone H2AX phosphorylation (DNA damage, western blot). The test is classed as cell-based, human and murine. Conditions: HCT116 and CT26.WT, STS 24 hours + vitamin C 350 μM 3 hours. On the procedure: as §1
Test [2] deals with HO-1. The test is described as follows: HO-1 protein expression in grafted HCT116 tumors. The test is classed as in vivo, mouse. The conditions noted are these: ad libitum or FMD cycles, vitamin C 4 g/kg i.p. twice a day.
The test system of test [3] is HO-1. The test is described as follows: HO-1 expression in HCT116 (qPCR, western blot). It is filed as cell-based, human. Conditions: HCT116, CTR, vitamin C 350 μM 3 hours as single intervention. On the procedure:
Cells were washed twice in ice-cold PBS and lysates were prepared in RIPA lysis buffer (50 mM Tris HCl pH 7.4, 150 mM NaCl, 1% NP-40, 0.25% deoxycholic acid, 1 mM EDTA) supplemented with protease and phosphatase inhibitors (protease inhibitor cocktail set III EDTA-free, Calbiochem, Cat. #: S39134; PhosStop, Roche), Samples were sonicated (bioruptor plus, diogenode) and centrifuged at 16.1 g for 30 minutes at 4° C. Tumor tissues were collected and snap frozen in liquid nitrogen immediately after mice were sacrificed, and stored in -80° C. until use. […] Protein concentrations were determined by BCA assay (Thermo Fisher Scientific, Cat. #: 23225). Proteins were diluted in 1× Laemmli sample buffer, boiled at 95° C. for 5 minutes and 30 μg of total proteins were separated by using SDS-PAGE and analyzed by western blotting by standard procedures. […] Membranes were incubated overnight at 4° C. with gentle shaking with the following primary antibodies: […] ADI-SPA894), FTH (1:1000, Cell Signaling, Cat. #: 3998), AMPK (1:1000, Cell Signaling, Cat. #: 2532), phospho-[…] […] Bands intensity was quantified with NIH Image J software (version 1.48v). […] Resulting cDNA (1/20 v/v) was analyzed by real-time polymerase reaction (qRT-PCR) using TaqMan MBG probes with FAM reporter dyes. […]

Test [4] concerns KRAS mutant cancer cells (HCT116, DLD-1, CT26.WT, H23, H727, PANC1). The test is described as follows: Muse cell viability assay, KRAS mutant panel. Conditions: CTR condition, vitamin C ≥0.3 mM, 24 hours. It is filed as cell-based, human and murine.

Regarding `O=C1O[C@H]([C@@H](O)CO)C(O)=C1O` [vitamin C, ascorbic acid], the “AKT phosphorylation level (downregulated upon STS)” value in the test with phospho-AKT (serine 473) is listed as “potentiated even further”. The “DNA damage measured by phosphorylation level of histone H2AX” value in test [1] is “strongly induced DNA damage”. Moreover, in the test with HO-1 [2], the “HO-1 protein expression level in grafted tumors” value is reported as “HO-1 up-regulation”. For the same compound, the “HO-1 mRNA and protein level” value in the test with HO-1 [3] is “significantly up-regulated HO-1 both at transcriptional and protein level”. Also, the “sensitivity to vitamin C” value in test [4] is on record as “modest sensitivity”.
